System: Human immunodeficiency virus 1
Assay: Antiviral activity against HIV1 harboring RT Y181C mutant infected in human MT4 cells assessed as protection against virus-induced cytopathic effect by MTT assay
Type: functional, organism-based
Conditions: Human immunodeficiency virus 1, MT4

Row | SMILES | EC50 [µM]
1 | Cc1cc(C)cc(S(=O)(=O)c2c(C(=O)NCc3ccc(O)c(O)c3)[nH]c3ccc(Cl)cc23)c1 | 0.0041
2 | Cc1ccnc2c1NC(=O)c1cccnc1N2C1CC1 [NEVIRAPINE] | > 3.76
3 | Cc1cc(C)cc(S(=O)(=O)c2c(C(=O)NC(C)c3cccc(O)c3)[nH]c3ccc(Cl)cc23)c1 (stereo not given) | 0.01
4 | Cc1cc(C)cc(S(=O)(=O)c2c(C(=O)NCC(=O)NCc3ccccc3O)[nH]c3ccc(Cl)cc23)c1 | 0.0019
5 | Cc1cc(C)cc(S(=O)(=O)c2c(C(=O)NCc3cccc(O)c3)[nH]c3ccccc23)c1 | 0.021
6 | Cc1cc(C)cc(S(=O)(=O)c2c(C(=O)Nc3ccccc3O)[nH]c3ccc(Cl)cc23)c1 | 0.02
7 | Cc1cc(C)cc(S(=O)(=O)c2c(C(=O)Nc3cccc(O)c3)[nH]c3ccc(Cl)cc23)c1 | 0.044

System: Human immunodeficiency virus 1
Assay: Resistance index, ratio of EC50 for antiviral activity against HIV1 harboring RT K103N/Y181C double mutant infected in human MT4 cells to EC50 for antiviral activity against HIV1 NL4-3 infected in human MT4 cells
Type: functional
Conditions: not given

Row | SMILES | Ratio EC50
8 | Cc1cc(C)cc(S(=O)(=O)c2c(C(=O)NCc3ccc(O)c(O)c3)[nH]c3ccc(Cl)cc23)c1 | >4624
9 | Cc1cc(C)cc(S(=O)(=O)c2c(C(=O)NC(C)c3cccc(O)c3)[nH]c3ccc(Cl)cc23)c1 (stereo not given) | 857
10 | Cc1cc(C)cc(S(=O)(=O)c2c(C(=O)NCC(=O)NCc3ccccc3O)[nH]c3ccc(Cl)cc23)c1 | >7701
11 | Cc1cc(C)cc(S(=O)(=O)c2c(C(=O)NCc3cccc(O)c3)[nH]c3ccccc23)c1 | >2584
12 | Cc1cc(C)cc(S(=O)(=O)c2c(C(=O)Nc3ccccc3O)[nH]c3ccc(Cl)cc23)c1 | >28166
13 | Cc1cc(C)cc(S(=O)(=O)c2c(C(=O)Nc3cccc(O)c3)[nH]c3ccc(Cl)cc23)c1 | >8698

System: Human immunodeficiency virus 1
Assay: Antiviral activity against HIV1 harboring RT Y188L mutant infected in human MT4 cells assessed as protection against virus-induced cytopathic effect by MTT assay
Type: functional, organism-based
Conditions: Human immunodeficiency virus 1, MT4

Row | SMILES | EC50 [µM]
14 | Cc1cc(C)cc(S(=O)(=O)c2c(C(=O)NCc3ccc(O)c(O)c3)[nH]c3ccc(Cl)cc23)c1 | 0.07
15 | Cc1ccnc2c1NC(=O)c1cccnc1N2C1CC1 [NEVIRAPINE] | > 3.76
16 | Cc1cc(C)cc(S(=O)(=O)c2c(C(=O)NC(C)c3cccc(O)c3)[nH]c3ccc(Cl)cc23)c1 (stereo not given) | 0.166
17 | Cc1cc(C)cc(S(=O)(=O)c2c(C(=O)NCC(=O)NCc3ccccc3O)[nH]c3ccc(Cl)cc23)c1 | 0.0017
18 | Cc1cc(C)cc(S(=O)(=O)c2c(C(=O)NCc3cccc(O)c3)[nH]c3ccccc23)c1 | 1.27
19 | Cc1cc(C)cc(S(=O)(=O)c2c(C(=O)Nc3ccccc3O)[nH]c3ccc(Cl)cc23)c1 | 4.81
20 | Cc1cc(C)cc(S(=O)(=O)c2c(C(=O)Nc3cccc(O)c3)[nH]c3ccc(Cl)cc23)c1 | 0.455

System: Human immunodeficiency virus 1
Assay: Antiviral activity against HIV-1 NL4-3 infected in human MT-4 cells assessed as virus induced cytopathic effect by MTT assay
Type: functional, organism-based
Conditions: Human immunodeficiency virus 1, NL4-3, MT4

Row | SMILES | EC50 [µM]
21 | Cc1cc(C)cc(S(=O)(=O)c2c(C(=O)NCc3ccc(O)c(O)c3)[nH]c3ccc(Cl)cc23)c1 | < 0.0007
22 | Cc1ccnc2c1NC(=O)c1cccnc1N2C1CC1 [NEVIRAPINE] | 0.112
23 | Cc1cc(C)cc(S(=O)(=O)c2c(C(=O)NC(C)c3cccc(O)c3)[nH]c3ccc(Cl)cc23)c1 (stereo not given) | < 0.0007
24 | Cc1cc(C)cc(S(=O)(=O)c2c(C(=O)NCC(=O)NCc3ccccc3O)[nH]c3ccc(Cl)cc23)c1 | < 0.0006
25 | Cc1cn([C@H]2C[C@H](N=[N+]=[N-])[C@@H](CO)O2)c(=O)[nH]c1=O [ZIDOVUDINE] | 0.0037
26 | Cc1cc(C)cc(S(=O)(=O)c2c(C(=O)NCc3cccc(O)c3)[nH]c3ccccc23)c1 | < 0.0007
27 | Cc1cc(C)cc(S(=O)(=O)c2c(C(=O)Nc3ccccc3O)[nH]c3ccc(Cl)cc23)c1 | < 0.0007
28 | Cc1cc(C)cc(S(=O)(=O)c2c(C(=O)Nc3cccc(O)c3)[nH]c3ccc(Cl)cc23)c1 | < 0.0007

System: Human immunodeficiency virus 1
Assay: Resistance index, ratio of EC50 for antiviral activity against HIV1 harboring RT Y181C mutant infected in human MT4 cells to EC50 for antiviral activity against HIV1 NL4-3 infected in human MT4 cells
Type: functional
Conditions: not given

Row | SMILES | Ratio EC50
29 | Cc1cc(C)cc(S(=O)(=O)c2c(C(=O)NCc3ccc(O)c(O)c3)[nH]c3ccc(Cl)cc23)c1 | >5.9
30 | Cc1cc(C)cc(S(=O)(=O)c2c(C(=O)NC(C)c3cccc(O)c3)[nH]c3ccc(Cl)cc23)c1 (stereo not given) | 14
31 | Cc1cc(C)cc(S(=O)(=O)c2c(C(=O)NCC(=O)NCc3ccccc3O)[nH]c3ccc(Cl)cc23)c1 | >3.2
32 | Cc1cn([C@H]2C[C@H](N=[N+]=[N-])[C@@H](CO)O2)c(=O)[nH]c1=O [ZIDOVUDINE] | 1.6
33 | Cc1cc(C)cc(S(=O)(=O)c2c(C(=O)NCc3cccc(O)c3)[nH]c3ccccc23)c1 | >30
34 | Cc1cc(C)cc(S(=O)(=O)c2c(C(=O)Nc3ccccc3O)[nH]c3ccc(Cl)cc23)c1 | >28
35 | Cc1cc(C)cc(S(=O)(=O)c2c(C(=O)Nc3cccc(O)c3)[nH]c3ccc(Cl)cc23)c1 | >62

System: Human immunodeficiency virus 1
Assay: Resistance index, ratio of EC50 for antiviral activity against HIV1 harboring RT Y188L mutant infected in human MT4 cells to EC50 for antiviral activity against HIV1 NL4-3 infected in human MT4 cells
Type: functional
Conditions: not given

Row | SMILES | Ratio EC50
36 | Cc1cc(C)cc(S(=O)(=O)c2c(C(=O)NCc3ccc(O)c(O)c3)[nH]c3ccc(Cl)cc23)c1 | >100
37 | Cc1cc(C)cc(S(=O)(=O)c2c(C(=O)NC(C)c3cccc(O)c3)[nH]c3ccc(Cl)cc23)c1 (stereo not given) | 237
38 | Cc1cc(C)cc(S(=O)(=O)c2c(C(=O)NCC(=O)NCc3ccccc3O)[nH]c3ccc(Cl)cc23)c1 | >2.8
39 | Cc1cn([C@H]2C[C@H](N=[N+]=[N-])[C@@H](CO)O2)c(=O)[nH]c1=O [ZIDOVUDINE] | 8.9
40 | Cc1cc(C)cc(S(=O)(=O)c2c(C(=O)NCc3cccc(O)c3)[nH]c3ccccc23)c1 | >1808
41 | Cc1cc(C)cc(S(=O)(=O)c2c(C(=O)Nc3ccccc3O)[nH]c3ccc(Cl)cc23)c1 | >6881
42 | Cc1cc(C)cc(S(=O)(=O)c2c(C(=O)Nc3cccc(O)c3)[nH]c3ccc(Cl)cc23)c1 | >650

System: Human immunodeficiency virus 1
Assay: Resistance index, ratio of EC50 for antiviral activity against HIV1 harboring RT K103N mutant infected in human MT4 cells to EC50 for antiviral activity against HIV1 NL4-3 infected in human MT4 cells
Type: functional
Conditions: not given

Row | SMILES | Ratio EC50
43 | Cc1cc(C)cc(S(=O)(=O)c2c(C(=O)NCC(=O)NCc3ccccc3O)[nH]c3ccc(Cl)cc23)c1 | >251
44 | Cc1cn([C@H]2C[C@H](N=[N+]=[N-])[C@@H](CO)O2)c(=O)[nH]c1=O [ZIDOVUDINE] | 4.3

System: Human immunodeficiency virus 1
Assay: Antiviral activity against HIV1 harboring RT K103N mutant infected in human MT4 cells assessed as protection against virus-induced cytopathic effect by MTT assay
Type: functional, organism-based
Conditions: Human immunodeficiency virus 1, MT4

Row | SMILES | EC50 [µM]
45 | Cc1cc(C)cc(S(=O)(=O)c2c(C(=O)NCc3ccc(O)c(O)c3)[nH]c3ccc(Cl)cc23)c1 | < 0.0007
46 | Cc1ccnc2c1NC(=O)c1cccnc1N2C1CC1 [NEVIRAPINE] | > 3.76
47 | Cc1cc(C)cc(S(=O)(=O)c2c(C(=O)NC(C)c3cccc(O)c3)[nH]c3ccc(Cl)cc23)c1 (stereo not given) | < 0.0007
48 | Cc1cc(C)cc(S(=O)(=O)c2c(C(=O)NCC(=O)NCc3ccccc3O)[nH]c3ccc(Cl)cc23)c1 | 0.151
49 | Cc1cc(C)cc(S(=O)(=O)c2c(C(=O)NCc3cccc(O)c3)[nH]c3ccccc23)c1 | < 0.0007
50 | Cc1cc(C)cc(S(=O)(=O)c2c(C(=O)Nc3ccccc3O)[nH]c3ccc(Cl)cc23)c1 | > 0.0007
51 | Cc1cc(C)cc(S(=O)(=O)c2c(C(=O)Nc3cccc(O)c3)[nH]c3ccc(Cl)cc23)c1 | < 0.0007

System: not listed separately
Assay: Cytotoxicity against human MT-4 cells assessed as reduction in cell viability by MTT assay
Type: cell-based, MT4
Conditions: not given

Row | SMILES | CC50 [µM]
52 | O=C1Nc2ccc(Cl)cc2[C@@](C#CC2CC2)(C(F)(F)F)O1 [EFAVIRENZ] | > 15.8
53 | Cc1cc(C)cc(S(=O)(=O)c2c(C(=O)NCc3ccc(O)c(O)c3)[nH]c3ccc(Cl)cc23)c1 | 18.3
54 | Cc1ccnc2c1NC(=O)c1cccnc1N2C1CC1 [NEVIRAPINE] | > 18.8
55 | Cc1cc(C)cc(S(=O)(=O)c2c(C(=O)NC(C)c3cccc(O)c3)[nH]c3ccc(Cl)cc23)c1 (stereo not given) | 16
56 | Cc1cc(C)cc(S(=O)(=O)c2c(C(=O)NCC(=O)NCc3ccccc3O)[nH]c3ccc(Cl)cc23)c1 | > 47.3
57 | Cc1cn([C@H]2C[C@H](N=[N+]=[N-])[C@@H](CO)O2)c(=O)[nH]c1=O [ZIDOVUDINE] | > 30.6
58 | Cc1cc(C)cc(S(=O)(=O)c2c(C(=O)NCc3cccc(O)c3)[nH]c3ccccc23)c1 | > 5.2
59 | Cc1cc(C)cc(S(=O)(=O)c2c(C(=O)Nc3ccccc3O)[nH]c3ccc(Cl)cc23)c1 | 19.7
60 | Cc1cc(C)cc(S(=O)(=O)c2c(C(=O)Nc3cccc(O)c3)[nH]c3ccc(Cl)cc23)c1 | 24.6

System: Human immunodeficiency virus 1
Assay: Antiviral activity against HIV1 harboring RT K103N/Y181C double mutant infected in human MT4 cells assessed as protection against virus-induced cytopathic effect by MTT assay
Type: functional, organism-based
Conditions: Human immunodeficiency virus 1, MT4

Row | SMILES | EC50 [µM]
61 | Cc1cc(C)cc(S(=O)(=O)c2c(C(=O)NCN3CCCC3)[nH]c3ccc(Cl)cc23)c1 | 0.3
62 | Cc1cc(C)cc(S(=O)(=O)c2c(C(=O)NC(C)C(N)=O)[nH]c3ccc(Cl)cc23)c1 (stereo not given) | 0.7
63 | O=C1Nc2ccc(Cl)cc2[C@@](C#CC2CC2)(C(F)(F)F)O1 [EFAVIRENZ] | > 0.317
64 | Cc1cc(C)cc(S(=O)(=O)c2c(C(=O)NCc3ccc(O)c(O)c3)[nH]c3ccc(Cl)cc23)c1 | 3.24
65 | Cc1ccnc2c1NC(=O)c1cccnc1N2C1CC1 [NEVIRAPINE] | > 3.76
66 | Cc1cc(C)cc(S(=O)(=O)c2c(C(N)=O)[nH]c3ccc(Cl)cc23)c1 | 0.65
67 | Cc1cc(C)cc(S(=O)(=O)c2c(C(=O)NC(C)c3cccc(O)c3)[nH]c3ccc(Cl)cc23)c1 (stereo not given) | 0.6
68 | Cc1cc(C)cc(S(=O)(=O)c2c(C(=O)NCC(=O)NCc3ccccc3O)[nH]c3ccc(Cl)cc23)c1 | 4.62
69 | Cc1cn([C@H]2C[C@H](N=[N+]=[N-])[C@@H](CO)O2)c(=O)[nH]c1=O [ZIDOVUDINE] | 0.016
70 | Cc1cc(C)cc(S(=O)(=O)c2c(C(=O)NCc3cccc(O)c3)[nH]c3ccccc23)c1 | 1.81
71 | Cc1cc(C)cc(S(=O)(=O)c2c(C(=O)Nc3ccccc3O)[nH]c3ccc(Cl)cc23)c1 | > 19.7
72 | NC(=O)c1[nH]c2ccc(Cl)cc2c1S(=O)(=O)c1ccccc1 [L-737126] | 8
73 | Cc1cc(C)cc(S(=O)(=O)c2c(C(=O)Nc3cccc(O)c3)[nH]c3ccc(Cl)cc23)c1 | 6.09

System: not listed separately
Assay: Selectivity ratio of CC50 for human MT4 cells to EC50 for antiviral activity against HIV-1 NL4-3 infected in human MT4 cells
Type: toxicity, cell-based
Conditions: read-out: Ratio CC50/EC50

Row | SMILES | selectivity ratio
74 | Cc1cc(C)cc(S(=O)(=O)c2c(C(=O)NCc3ccc(O)c(O)c3)[nH]c3ccc(Cl)cc23)c1 | > 26200
75 | Cc1cc(C)cc(S(=O)(=O)c2c(C(=O)NC(C)c3cccc(O)c3)[nH]c3ccc(Cl)cc23)c1 (stereo not given) | > 22800
76 | Cc1cc(C)cc(S(=O)(=O)c2c(C(=O)NCC(=O)NCc3ccccc3O)[nH]c3ccc(Cl)cc23)c1 | > 78900
77 | Cc1cn([C@H]2C[C@H](N=[N+]=[N-])[C@@H](CO)O2)c(=O)[nH]c1=O [ZIDOVUDINE] | > 8270
78 | Cc1cc(C)cc(S(=O)(=O)c2c(C(=O)NCc3cccc(O)c3)[nH]c3ccccc23)c1 | > 3640
79 | Cc1cc(C)cc(S(=O)(=O)c2c(C(=O)Nc3ccccc3O)[nH]c3ccc(Cl)cc23)c1 | > 28200
80 | Cc1cc(C)cc(S(=O)(=O)c2c(C(=O)Nc3cccc(O)c3)[nH]c3ccc(Cl)cc23)c1 | > 35200

— ChEMBL document CHEMBL4706559, “New indolylarylsulfone non-nucleoside reverse transcriptase inhibitors show low nanomolar inhibition of single and double HIV-1 mutant strains” (Eur J Med Chem, 2020)
